ChEMBL document CHEMBL1133169, “A light-inactivated antibiotic” (2000)

What was measured:
[1] = The turnover kinetic parameter (kcat/Km) evaluated for class C Q908R Beta-latctamase
[2] = biological target: Beta-lactamase TEM (Escherichia coli) (UniProt P62593); experiment: The turnover kinetic parameter (kcat/Km) evaluated for class A TEM-1 Beta-latctamase
[3] = The turnover kinetic parameter (Km) evaluated for Class C Q908R Beta-lactamase
[4] = The turnover kinetic parameter (kcat) evaluated for class C Q908R Beta-latctamase
[5] = biological target: Beta-lactamase TEM (Escherichia coli) (UniProt P62593); experiment: The turnover kinetic parameter (kcat) evaluated for Class A TEM-1 beta-lactamase

Beta-lactamase TEM (Escherichia coli), sequence (P62593 whole entry): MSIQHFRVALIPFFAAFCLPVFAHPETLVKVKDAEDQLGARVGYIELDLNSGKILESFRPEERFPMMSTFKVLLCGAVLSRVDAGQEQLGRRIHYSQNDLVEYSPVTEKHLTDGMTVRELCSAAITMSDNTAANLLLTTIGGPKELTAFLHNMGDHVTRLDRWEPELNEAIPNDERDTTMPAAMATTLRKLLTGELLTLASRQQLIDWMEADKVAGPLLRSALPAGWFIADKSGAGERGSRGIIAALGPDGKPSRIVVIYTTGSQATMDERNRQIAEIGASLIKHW

Compound: CC(=O)OCC1=C(C(=O)O)N2C(=O)[C@@H](NC(=O)[C@@H](Cc3ccccc3)NNC(=O)OCc3ccccc3[N+](=O)[O-])C2SC1 (stereo not given in full)
- k cat/Km [1]: 2.8e+07 M⁻¹ s⁻¹
- k cat/Km [2]: 93000 M⁻¹ s⁻¹
- Km [3]: 62 µM
- k cat [4]: 1770 s⁻¹
- k cat [5]: 7.4 s⁻¹
